Laboratory results as given in PubChem BioAssay AID2060887 (Molecular Pharmacology Branch, DTP, NCI, 2025).
Blank lines part the entries; values can stand above or below the molecule they belong to.

Test system: 782815-120-R-J1-PDC complex spheroid viability
Assay: Anticancer human tumor 782815-120-R-J1-PDC patient-derived colon adenocarcinoma cell line growth inhibition [RAS]
Conditions: for IC50: curve of first compound; for viability, T/C: stronger effect = lower value
Procedure, shortened: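 Agents were tested in combination matrices in half-log decrements from a top concentration at or near clinical Cmax (10 microM if undetermined). Targets were multi-cell spheroids of tumour lines plus HUVEC and MSC stromal cells.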

[1] = second compound 0.000949 µM, first compound 0.0316 µM
[2] = second compound 0.000949 µM, first compound 0.1 µM
[3] = second compound 0.000949 µM, first compound 0.316 µM
[4] = second compound 0.000949 µM, first compound 1 µM
[5] = second compound 0.003 µM, first compound 0.0316 µM
[6] = second compound 0.003 µM, first compound 0.1 µM
[7] = second compound 0.003 µM, first compound 0.316 µM
[8] = second compound 0.003 µM, first compound 1 µM
[9] = second compound 0.00949 µM, first compound 0.0316 µM
[10] = second compound 0.00949 µM, first compound 0.1 µM
[11] = second compound 0.00949 µM, first compound 0.316 µM
[12] = second compound 0.00949 µM, first compound 1 µM
[13] = second compound 0.03 µM, first compound 0.0316 µM
[14] = second compound 0.03 µM, first compound 0.1 µM
[15] = second compound 0.03 µM, first compound 0.316 µM
[16] = second compound 0.03 µM, first compound 1 µM
[17] = second compound 0.0949 µM, first compound 0.0316 µM
[18] = second compound 0.0949 µM, first compound 0.1 µM
[19] = second compound 0.0949 µM, first compound 0.316 µM
[20] = second compound 0.0949 µM, first compound 1 µM
[21] = second compound 0.3 µM, first compound 0.0316 µM
[22] = second compound 0.3 µM, first compound 0.1 µM
[23] = second compound 0.3 µM, first compound 0.316 µM
[24] = second compound 0.3 µM, first compound 1 µM
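Note: spheroids exposed to compounds for 7 days before reading.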
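Throughout, for viability, T/C: 100% = DMSO vehicle control viability.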

- IC50 (second compound 0.000949 µM): < 31.6 nM
- IC50 (second compound 0.003 µM): < 31.6 nM
- IC50 (second compound 0.00949 µM): < 31.6 nM
- IC50 (second compound 0.03 µM): < 31.6 nM
- IC50 (second compound 0.0949 µM): < 31.6 nM
- IC50 (second compound 0.3 µM): < 31.6 nM
SMILES: CC(=O)OC12COC1CC(O)C1(C)C(=O)C(O)C3=C(C)C(OC(=O)C(O)C(NC(=O)OC(C)(C)C)c4ccccc4)CC(O)(C(OC(=O)c4ccccc4)C21)C3(C)C (stereo unspecified) + CCn1c(-c2cc(N3CCN(C)CC3)cnc2C(C)OC)c2c3cc(ccc31)-c1csc(n1)CC(NC(=O)C1CC1C)C(=O)N1CCCC(N1)C(=O)OCC(C)(C)C2
- viability, T/C [1]: 26%
- viability, T/C [2]: 27.8%
- viability, T/C [3]: 23.1%
- viability, T/C [4]: 28.1%
- viability, T/C (second compound 0.000949 µM, first compound 3.16 µM): 27.1%
- viability, T/C (second compound 0.000949 µM, first compound 10 µM): 32.5%
- viability, T/C [5]: 25.8%
- viability, T/C [6]: 24.6%
- viability, T/C [7]: 23.2%
- viability, T/C [8]: 22%
- viability, T/C (second compound 0.003 µM, first compound 3.16 µM): 21.3%
- viability, T/C (second compound 0.003 µM, first compound 10 µM): 25.7%
- viability, T/C [9]: 19.1%
- viability, T/C [10]: 16.4%
- viability, T/C [11]: 15.1%
- viability, T/C [12]: 16.4%
- viability, T/C (second compound 0.00949 µM, first compound 3.16 µM): 19.1%
- viability, T/C (second compound 0.00949 µM, first compound 10 µM): 16.1%
- viability, T/C [13]: 12.5%
- viability, T/C [14]: 13.5%
- viability, T/C [15]: 13.3%
- viability, T/C [16]: 13.3%
- viability, T/C (second compound 0.03 µM, first compound 3.16 µM): 14.8%
- viability, T/C (second compound 0.03 µM, first compound 10 µM): 13.3%
- viability, T/C [17]: 12.6%
- viability, T/C [18]: 12.4%
- viability, T/C [19]: 10.3%
- viability, T/C [20]: 12.2%
- viability, T/C (second compound 0.0949 µM, first compound 3.16 µM): 11.3%
- viability, T/C (second compound 0.0949 µM, first compound 10 µM): 11.3%
- viability, T/C [21]: 13%
- viability, T/C [22]: 12.6%
- viability, T/C [23]: 9.92%
- viability, T/C [24]: 9.28%
- viability, T/C (second compound 0.3 µM, first compound 3.16 µM): 10.9%
- viability, T/C (second compound 0.3 µM, first compound 10 µM): 13%

- IC50 (second compound 0.000949 µM): 2.4 nM
- IC50 (second compound 0.003 µM): 1.92 nM
- IC50 (second compound 0.00949 µM): < 0.949 nM
- IC50 (second compound 0.03 µM): < 0.949 nM
- IC50 (second compound 0.0949 µM): < 0.949 nM
- IC50 (second compound 0.3 µM): < 0.949 nM
SMILES: CCc1c2c(nc3ccc(O)cc13)-c1cc3c(c(=O)n1C2)COC(=O)[C@]3(O)CC + CCn1c(-c2cc(N3CCN(C)CC3)cnc2C(C)OC)c2c3cc(ccc31)-c1csc(n1)CC(NC(=O)C1CC1C)C(=O)N1CCCC(N1)C(=O)OCC(C)(C)C2
- viability, T/C (second compound 0.000949 µM, first compound 0.000949 µM): 70.4%
- viability, T/C (second compound 0.000949 µM, first compound 0.003 µM): 45.9%
- viability, T/C (second compound 0.000949 µM, first compound 0.00949 µM): 19.8%
- viability, T/C (second compound 0.000949 µM, first compound 0.03 µM): 10.8%
- viability, T/C (second compound 0.000949 µM, first compound 0.0949 µM): 3.9%
- viability, T/C (second compound 0.000949 µM, first compound 0.3 µM): 1.57%
- viability, T/C (second compound 0.003 µM, first compound 0.000949 µM): 66.6%
- viability, T/C (second compound 0.003 µM, first compound 0.003 µM): 38.8%
- viability, T/C (second compound 0.003 µM, first compound 0.00949 µM): 23.4%
- viability, T/C (second compound 0.003 µM, first compound 0.03 µM): 12.9%
- viability, T/C (second compound 0.003 µM, first compound 0.0949 µM): 4.38%
- viability, T/C (second compound 0.003 µM, first compound 0.3 µM): 1.89%
- viability, T/C (second compound 0.00949 µM, first compound 0.000949 µM): 32.7%
- viability, T/C (second compound 0.00949 µM, first compound 0.003 µM): 28.5%
- viability, T/C (second compound 0.00949 µM, first compound 0.00949 µM): 15.4%
- viability, T/C (second compound 0.00949 µM, first compound 0.03 µM): 12.7%
- viability, T/C (second compound 0.00949 µM, first compound 0.0949 µM): 7.05%
- viability, T/C (second compound 0.00949 µM, first compound 0.3 µM): 1.84%
- viability, T/C (second compound 0.03 µM, first compound 0.000949 µM): 19.6%
- viability, T/C (second compound 0.03 µM, first compound 0.003 µM): 16.7%
- viability, T/C (second compound 0.03 µM, first compound 0.00949 µM): 11.7%
- viability, T/C (second compound 0.03 µM, first compound 0.03 µM): 10.4%
- viability, T/C (second compound 0.03 µM, first compound 0.0949 µM): 6.53%
- viability, T/C (second compound 0.03 µM, first compound 0.3 µM): 1.73%
- viability, T/C (second compound 0.0949 µM, first compound 0.000949 µM): 15.5%
- viability, T/C (second compound 0.0949 µM, first compound 0.003 µM): 16.3%
- viability, T/C (second compound 0.0949 µM, first compound 0.00949 µM): 11.7%
- viability, T/C (second compound 0.0949 µM, first compound 0.03 µM): 10.5%
- viability, T/C (second compound 0.0949 µM, first compound 0.0949 µM): 7.5%
- viability, T/C (second compound 0.0949 µM, first compound 0.3 µM): 0.75%
- viability, T/C (second compound 0.3 µM, first compound 0.000949 µM): 14.3%
- viability, T/C (second compound 0.3 µM, first compound 0.003 µM): 13.6%
- viability, T/C (second compound 0.3 µM, first compound 0.00949 µM): 10.7%
- viability, T/C (second compound 0.3 µM, first compound 0.03 µM): 13.1%
- viability, T/C (second compound 0.3 µM, first compound 0.0949 µM): 7.92%
- viability, T/C (second compound 0.3 µM, first compound 0.3 µM): 1.5%

- IC50 (second compound 0.000949 µM): 20.7 nM
- IC50 (second compound 0.003 µM): 12.7 nM
- IC50 (second compound 0.00949 µM): < 3.16 nM
- IC50 (second compound 0.03 µM): < 3.16 nM
- IC50 (second compound 0.0949 µM): < 3.16 nM
- IC50 (second compound 0.3 µM): < 3.16 nM
SMILES: Nc1ccn(C2OC(CO)C(O)C2(F)F)c(=O)n1 (stereo unspecified) + CCn1c(-c2cc(N3CCN(C)CC3)cnc2C(C)OC)c2c3cc(ccc31)-c1csc(n1)CC(NC(=O)C1CC1C)C(=O)N1CCCC(N1)C(=O)OCC(C)(C)C2
- viability, T/C (second compound 0.000949 µM, first compound 0.00316 µM): 74%
- viability, T/C (second compound 0.000949 µM, first compound 0.01 µM): 53.4%
- viability, T/C [1]: 48.6%
- viability, T/C [2]: 35.9%
- viability, T/C [3]: 28.4%
- viability, T/C [4]: 23.6%
- viability, T/C (second compound 0.003 µM, first compound 0.00316 µM): 60.9%
- viability, T/C (second compound 0.003 µM, first compound 0.01 µM): 51.7%
- viability, T/C [5]: 40%
- viability, T/C [6]: 25%
- viability, T/C [7]: 25.5%
- viability, T/C [8]: 23.7%
- viability, T/C (second compound 0.00949 µM, first compound 0.00316 µM): 30.8%
- viability, T/C (second compound 0.00949 µM, first compound 0.01 µM): 33.3%
- viability, T/C [9]: 23.1%
- viability, T/C [10]: 23%
- viability, T/C [11]: 17.1%
- viability, T/C [12]: 18%
- viability, T/C (second compound 0.03 µM, first compound 0.00316 µM): 20.1%
- viability, T/C (second compound 0.03 µM, first compound 0.01 µM): 21.2%
- viability, T/C [13]: 15.7%
- viability, T/C [14]: 13.3%
- viability, T/C [15]: 13.7%
- viability, T/C [16]: 14.1%
- viability, T/C (second compound 0.0949 µM, first compound 0.00316 µM): 15.7%
- viability, T/C (second compound 0.0949 µM, first compound 0.01 µM): 15.9%
- viability, T/C [17]: 13.3%
- viability, T/C [18]: 11.6%
- viability, T/C [19]: 13.2%
- viability, T/C [20]: 10.7%
- viability, T/C (second compound 0.3 µM, first compound 0.00316 µM): 15.7%
- viability, T/C (second compound 0.3 µM, first compound 0.01 µM): 16.1%
- viability, T/C [21]: 16.1%
- viability, T/C [22]: 13.2%
- viability, T/C [23]: 12.6%
- viability, T/C [24]: 10.2%
